According to PMC5402304, “Oxoaporphine Metal Complexes (Co^II, Ni^II, Zn^II) with High Antitumor Activity by Inducing Mitochondria-Mediated Apoptosis and S-phase Arrest in HepG2” (Scientific Reports, 2017):
Where two headings read alike, the source gives them in different places.

Experiments:
BEL-7404 [1] = details: read-out: Antitumor activity: IC50; cited from earlier work
HT-29 = tested on: HT-29; parameters: method as in PMID 20023911; details: read-out: Antitumor activity: IC50; cited from earlier work
A2780 = tested on: A2780; parameters: method as in PMID 20023911; details: read-out: Antitumor activity: IC50; cited from earlier work
HepG2 cells [2] = experiment: Cell cycle analysis by flow cytometry; format: cell-based, human; details: HepG2, 0.5 and 1.0 μM, 24 h, compared to untreated cells
Protocol: With the high cytotoxicity in vitro, HepG2 cells were selected to investigate the cell cycle treated with 1–3 (0.125, 0.25 and 0.5 μM) and OD (0.5 and 1.0 μM) for 24 h. […] However, 1–3 induced a significant increase of S-phase cell population in a dose-dependent manner.
Cell cycle progression and apoptosis were determined by flow cytometric analysis. (a) Cell cycle arrest assay: HepG2 cells in their logarithmic phase were plated into 50 mL plates at a final density of 5−6 × 10^6 cells/well overnight, then they were treated with various doses (0.25, 0.5 and 1.0 μM) of 1–3 for another 24 h. Cells were trypsinized, collected, and fixed in ice-cold 75% ethanol at −20 °C overnight. After centrifugation, the fixed cells were rinsed with ice-cold phosphate buffered saline (PBS), and resuspended in 0.5 mL of PBS containing 100 μg/mL RNase, 50 μg/mL propidium iodide (PI) in the dark for 5−10 min. The cell cycle distribution was analyzed by FACS Calibur flow cytometer (BD) and calculated using ModFIT LT software. (b) Apoptosis assay: 1 × 10^5 HepG2 cells were plated in 6-well plates, after incubation for 24 h with complexes 1–3 at 1.0, 2.0 and 5.0 μM, cells were collected, and Apoptosis Detection kit FITC Annexin V was used to analyze the cell apoptosis according to the manufacturer’s instructions.

HL-7702 = experiment: MTT cytotoxicity assay, normal liver cells HL-7702; format: cell-based, human; details: 48 h
Protocol: (§1) The in vitro cytotoxicity of OD, 1–3 and the corresponding metal salts were determined by MTT assay towards a panel of human tumor cells including HepG2, T-24, BEL-7404, MGC80-3, SK-OV-3/DDP and normal HL-7702 cells. As the positive control, cisplatin was dissolved at a concentration of 1 mM in 0.154 M NaCl[32].
(§2) The human tumor cell lines (BEL-7404, HepG2, MGC80–3, T-24, SK-OV-3/DDP and HeLa cells) and the human normal liver cell line HL-7702 were obtained from Shanghai Cell Bank in Chinese Academy of Sciences. Cells were cultured in Dulbecco’s modified Eagle’s medium (DMEM) or RPMI-1640 medium, which supplemented with 10% fetal bovine serum (FBS) and 100 U/mL penicillin and streptomycin. Cells were cultured at 37 °C in a humidified atmosphere with 5% CO2/95% air. Tested compounds (2.0 mM) were prepared as DMSO stock solution before they were diluted to working concentrations by PBS buffer (containing 0.5% DMSO), while cisplatin dissolved in 0.9% sodium chloride solution was used as positive controls.
(§3) Cells in their logarithmic phase were seeded in 96-well plates with 5.5 × 10^3/180 μL per well for 24 h. Then 20 μL of compounds at various concentrations were added to each well to achieve final concentrations of 1.25, 2.5, 5.0, 10.0, and 20.0 μM. All the cells were incubated with test compounds for another 48 h before MTT assay. Control wells contained media with 0.5% DMSO. After 48 h of cultivation, 10 μL of MTT (5 mg/mL in PBS) was added to each well, and cells were incubated at 37 °C for 6 h. The contents in the wells were pipetted out carefully, and the formazan crystals formed were dissolved in 100 μL of DMSO, and the absorbance was measured by enzyme labeling instrument with 490 nm/630 nm double wavelength measurement. The IC50 value was defined as a drug concentration killing 50% cells in comparison with untreated controls, which was calculated by the Bliss method (n = 5). All tests were repeated in at least three independent trials.

MGC80-3 = experiment: MTT cytotoxicity assay, MGC80-3; format: cell-based, human
Protocol: as §1, §2, §3

HepG2 cells [3] = experiment: Comet assay for DNA damage; format: cell-based, human; parameters: unit not given here; details: HepG2, 1.0 μM, 24 h
Protocol: After the observation of significant S-phase arrest caused by 1–3, the study of DNA damage assay is necessary. The single cell gel electrophoresis technique (comet assay) is a simple, sensitive, reliable, and rapid method to detect DNA damage in eukaryotic cell[39]. As shown in Table 3 and Fig. 6, 1–3 at 1.0 μM induced DNA damage (fragmentation or unwinding) appeared as fluorescent comets with remarkable increase of tails size, especially for 3.
The comet assay is a simple method for measuring DNA strand breaks in cells. The comet assay reagent kit was purchased from Trevigen, and the experiment was carried out according to the manufacturer’s instructions. After treatment with OD and 1–3 at 1.0 μM, HepG2 cells were harvested and suspended at 1 × 10^6 Hep-G2 cells/mL in PBS. The cells suspension was mixed with melted LM agarose at a ratio of 1:10 (v/v). An aliquot (75 μL) of the mixture was immediately pipetted onto the slide (Comet Slide TM). After refrigeration for 30 min, the slide was immersed in pre-chilled lysis solution and left on ice for 60 min, followed by immersing in freshly prepared alkaline solution (300 mM NaOH, 1 mM EDTA, pH > 13) for 60 min on ice in darkness. After DNA unwinding, the slide was subjected to alkaline solution for electrophoresis in a Savant ps 250 system set at 300 mA and 1 volt/cm for 30 min. After electrophoresis, the slide was rinsed with distilled H2O, fixed in 70% ethanol for 5 min and air-dried overnight. DNA was stained with SYBR Green I (Trevigen) and visualized under a fluorescence microscope (Nikon, Eclipse E600).

[4] = tested on: HepG2, T-24, BEL-7404, MGC80-3, SK-OV-3/DDP; experiment: MTT cytotoxicity assay, panel of human tumor cells; format: cell-based; details: 48 h, range over all the tested tumor cells, read-out: inhibition rate
Protocol: as §1, §2
Cells in their logarithmic phase were seeded in 96-well plates with 5.5 × 10^3/180 μL per well for 24 h. […] The contents in the wells were pipetted out carefully, and the formazan crystals formed were dissolved in 100 μL of DMSO, and the absorbance was measured by enzyme labeling instrument with 490 nm/630 nm double wavelength measurement. […]

SK-OV-3/DDP = experiment: MTT cytotoxicity assay, SK-OV-3/DDP; format: cell-based, human
Protocol: as §1, §2, §3

BEL-7404 [5] = experiment: MTT cytotoxicity assay, BEL-7404; format: cell-based, human
Protocol: as §1, §2, §3

HepG2 = experiment: MTT cytotoxicity assay, HepG2; format: cell-based, human
Protocol: as §1, §2, §3

T-24 = experiment: MTT cytotoxicity assay, T-24; format: cell-based, human
Protocol: as §1, §2, §3

## O=C1c2ccccc2-c2c3c(cc4ccnc1c24)OCO3.O=C1c2ccccc2-c2c3c(cc4ccnc1c24)OCO3.[Cl][Zn][Cl].[Cl][Zn][Cl] [Complex C00008]
BEL-7404 [1]
  IC50: 8.4 µM
HT-29
  IC50: 5.8 µM
A2780
  IC50: 6.7 µM

## COc1cc2c(cc1O)C(=O)c1nccc3cc(OC(C)C)c(OC)c-2c13 [OD]
HepG2 cells [2]
  effect on the population of the cell cycle: barely change the population of the cell cycle
HL-7702; HL-7702, 20 μmol/L
  inhibitive ratio: 46.55±0.67%
HL-7702; Homo sapiens, L02, HL-7702 normal liver cells, MTT
  IC50: 9.28 ± 0.43 µM
MGC80-3; Homo sapiens, MGC-803, MGC80-3, 48 h, MTT
  IC50: 23.3 ± 0.88 µM
MGC80-3; MGC80-3, 20 μmol/L, 48 h
  inhibitive ratio: 42.28±0.24%
HepG2 cells [3]
  Comet length: 49.45 ± 6.19
  Olive tail moment: 0.13 ± 0.29
  Tail length: 1.96 ± 1.78
  Tail moment: 0.12 ± 0.21
[4]
  inhibition at 20 µM: 33 to 47%
SK-OV-3/DDP; Homo sapiens, SK-OV-3/DDP, 48 h, MTT
  IC50: 38.5 ± 1.42 µM
SK-OV-3/DDP; SK-OV-3/DDP, ratio of IC50
  folds higher cytotoxicity than cisplatin: 2 folds
SK-OV-3/DDP; SKOV-3/DDP, 20 μmol/L, 48 h
  inhibitive ratio: 45.57±1.94%
BEL-7404 [5]; BEL-7404, 20 μmol/L, 48 h
  inhibitive ratio: 36.28±0.18%
BEL-7404 [5]; Homo sapiens, BEL-7404, 48 h, MTT
  IC50: 24.8 ± 1.02 µM
HepG2; HepG2, 20 μmol/L, 48 h
  inhibitive ratio: 33.35±0.32%
HepG2; Homo sapiens, HepG2, 48 h, MTT
  IC50: 8.98 ± 0.76 µM
T-24; Homo sapiens, T-24, 48 h, MTT
  IC50: 9.12 ± 0.11 µM
T-24; T-24, 20 μmol/L, 48 h
  inhibitive ratio: 46.91±0.17%
